Experimental data taken from ChEMBL document CHEMBL6177993, “De Novo 3-(Phenylcarbamoyl) Benzoate Analogues: Efficacy against Multidrug-Resistant S. aureus and Elucidation of the Biodistribution Profile” (J Med Chem, 2025).
Values after ≈ are worked out from the molar mass of the structure shown. Active and inactive are the calls of the source. No cut-off for these calls is given here.

Experiments:
[1] = system: Pseudomonas aeruginosa; assay: Antibacterial activity against Pseudomonas aeruginosa ATCC 27853 assessed as reduction in bacterial growth measured after 18 to 24 hrs by broth microdilution method; type: functional; details: time 18-24 hrs
[2] = system: Escherichia coli; assay: Antibacterial activity against Escherichia coli ATCC 25922 assessed as reduction in bacterial growth measured after 18 to 24 hrs by broth microdilution method; type: functional; details: time 18-24 hrs
[3] = system: Enterococcus faecalis; assay: Antibacterial activity against Enterococcus faecalis ATCC 35550 assessed as reduction in bacterial growth measured after 18 to 24 hrs by broth microdilution method; type: functional; details: time 18-24 hrs
[4] = system: Bacillus subtilis; assay: Antibacterial activity against Bacillus subtilis IITKSM1 assessed as reduction in bacterial growth measured after 18 to 24 hrs by broth microdilution method; type: functional; details: time 18-24 hrs
[5] = system: Klebsiella pneumoniae; assay: Antibacterial activity against Klebsiella pneumoniae BAA 1705 assessed as reduction in bacterial growth measured after 18 to 24 hrs by broth microdilution method; type: functional; details: time 18-24 hrs
[6] = system: Staphylococcus aureus; assay: Antibacterial activity against Staphylococcus aureus ATCC 29213 assessed as reduction in bacterial growth measured after 18 to 24 hrs by broth microdilution method; type: functional; details: time 18-24 hrs
[7] = system: Acinetobacter baumannii; assay: Antibacterial activity against Acinetobacter baumannii BAA 1605 assessed as reduction in bacterial growth measured after 18 to 24 hrs by broth microdilution method; type: functional; details: time 18-24 hrs
[8] = system: Staphylococcus aureus; assay: Antibacterial activity against Staphylococcus aureus assessed as reduction in bacterial growth; type: functional
[9] = system: Staphylococcus aureus; assay: Antibacterial activity against vacomycin-resistant Staphylococcus aureus VRS 4 assessed as reduction in bacterial growth measured after 18 to 24 hrs by broth microdilution method; type: functional; details: time 18-24 hrs
[10] = system: Staphylococcus aureus; assay: Antibacterial activity against vacomycin-resistant Staphylococcus aureus VRS 12 assessed as reduction in bacterial growth measured after 18 to 24 hrs by broth microdilution method; type: functional; details: time 18-24 hrs
[11] = system: Staphylococcus aureus; assay: Antibacterial activity against vacomycin-resistant Staphylococcus aureus VRS 1 assessed as reduction in bacterial growth measured after 18 to 24 hrs by broth microdilution method; type: functional; details: time 18-24 hrs
[12] = system: Staphylococcus aureus; assay: Bactericidal activity against Staphylococcus aureus ATCC 29213 at 4 to 8 time MIC measured after 8 hrs by time-kill assay; type: functional, organism-based
[13] = system: Staphylococcus aureus; assay: Inhibition of biofilm in Staphylococcus aureus ATCC 29213 at 2 times MIC measured after 12 hrs by crystal violet staining based analysis relative to control; type: functional
[14] = system: Staphylococcus aureus; assay: Inhibition of biofilm in Staphylococcus aureus ATCC 29213 at 0.5 times MIC measured after 12 hrs by crystal violet staining based analysis relative to control; type: functional
[15] = system: Staphylococcus aureus; assay: Inhibition of biofilm in Staphylococcus aureus ATCC 29213 at 1 times MIC measured after 12 hrs by crystal violet staining based analysis relative to control; type: functional
[16] = system: Staphylococcus aureus; assay: Antibacterial activity against methicillin-resistant Staphylococcus aureus NRS 191 assessed as reduction in bacterial growth measured after 18 to 24 hrs by broth microdilution method; type: functional; details: time 18-24 hrs
[17] = system: Staphylococcus aureus; assay: Antibacterial activity against methicillin-resistant Staphylococcus aureus NRS 129 assessed as reduction in bacterial growth measured after 18 to 24 hrs by broth microdilution method; type: functional; details: time 18-24 hrs
[18] = system: Staphylococcus aureus; assay: Antibacterial activity against methicillin-sensitive Staphylococcus aureus ATCC 29213 assessed as reduction in bacterial growth measured after 18 to 24 hrs by broth microdilution method; type: functional; details: time 18-24 hrs
[19] = system: Staphylococcus aureus; assay: Inhibition of biofilm in Staphylococcus aureus ATCC 29213 at 2 ug/ml measured after 12 hrs by crystal violet staining based analysis; type: functional, organism-based; details: dose 2.0 µg/ml
[20] = system: Staphylococcus aureus; assay: Antibacterial activity against methicillin-resistant Staphylococcus aureus NRS 119 assessed as reduction in bacterial growth measured after 18 to 24 hrs by broth microdilution method; type: functional; details: time 18-24 hrs
[21] = system: Staphylococcus aureus; assay: Antibacterial activity against methicillin-resistant Staphylococcus aureus NRS 192 assessed as reduction in bacterial growth measured after 18 to 24 hrs by broth microdilution method; type: functional; details: time 18-24 hrs
[22] = system: Staphylococcus aureus; assay: Antibacterial activity against methicillin-resistant Staphylococcus aureus NRS 100 assessed as reduction in bacterial growth measured after 18 to 24 hrs by broth microdilution method; type: functional; details: time 18-24 hrs
[23] = system: Staphylococcus aureus; assay: Antibacterial activity against methicillin-resistant Staphylococcus aureus NRS 198 assessed as reduction in bacterial growth measured after 18 to 24 hrs by broth microdilution method; type: functional; details: time 18-24 hrs
[24] = system: Staphylococcus aureus; assay: Antibacterial activity against methicillin-resistant Staphylococcus aureus NRS 193 assessed as reduction in bacterial growth measured after 18 to 24 hrs by broth microdilution method; type: functional; details: time 18-24 hrs
[25] = system: Staphylococcus aureus; assay: Antibacterial activity against methicillin-resistant Staphylococcus aureus NRS 186 assessed as reduction in bacterial growth measured after 18 to 24 hrs by broth microdilution method; type: functional; details: time 18-24 hrs
[26] = system: Staphylococcus aureus; assay: Antibacterial activity against methicillin-resistant Staphylococcus aureus NRS 194 assessed as reduction in bacterial growth measured after 18 to 24 hrs by broth microdilution method; type: functional; details: time 18-24 hrs

Compound	MIC [1] [µg/mL]	MIC [2] [µg/mL]	MIC [3] [µg/mL]	MIC [4] [µg/mL]	MIC [5] [µg/mL]	MIC [6] [µg/mL]	MIC [7] [µg/mL]	also measured
O=C(O)c1cccc(C(=O)Nc2c(C(c3ccccc3)c3ccccc3)cc(C(c3ccccc3)c3ccccc3)cc2C(c2ccccc2)c2ccccc2)c1	> 64	> 64	8 (≈ 10.8 µM)	64 (≈ 86.5 µM)	> 64	> 64	> 64	–
N=C(N)NCCC[C@H](NC(=O)[C@H](CCCNC(=N)N)NC(=O)[C@H](CCCNC(=N)N)NC(=O)Cn1cc(COc2ccccc2-c2ccc(-c3ccc(-c4ccccc4OCc4cn(CC(=O)N[C@@H](CCCNC(=N)N)C(=O)N[C@@H](CCCNC(=N)N)C(=O)N[C@@H](CCCNC(=N)N)C(N)=O)nn4)cc3)cc2)nn1)C(N)=O	–	–	–	–	–	–	–	MIC [8]: 6.05 µg/mL (≈ 3.9 µM)
CN[C@H](CC(C)C)C(=O)N[C@H]1C(=O)N[C@@H](CC(N)=O)C(=O)N[C@H]2C(=O)N[C@H]3C(=O)N[C@H](C(=O)N[C@H](C(=O)O)c4cc(O)cc(O)c4-c4cc3ccc4O)[C@H](O)c3ccc(c(Cl)c3)Oc3cc2cc(c3O[C@@H]2O[C@H](CO)[C@@H](O)[C@H](O)[C@H]2O[C@H]2C[C@](C)(N)[C@H](O)[C@H](C)O2)Oc2ccc(cc2Cl)[C@H]1O [VANCOMYCIN]	–	–	–	–	–	–	–	MIC [9]: > 64 µg/mL; MIC [10]: > 64 µg/mL; MIC [11]: > 64 µg/mL; Activity [12]: Active
CCCCc1cc(C(c2ccccc2)c2ccccc2)c(NC(=O)c2cccc(C(=O)O)c2)c(C(c2ccccc2)c2ccccc2)c1	> 64	> 64	2 (≈ 3.18 µM)	8 (≈ 12.7 µM)	> 64	16 (≈ 25.4 µM)	> 64	–
O=C(O)c1cccc(C(=O)Nc2c(C(c3ccccc3)c3ccccc3)cc(OC(F)(F)F)cc2C(c2ccccc2)c2ccccc2)c1	> 64	> 64	2 (≈ 3.04 µM)	2 (≈ 3.04 µM)	> 64	2 (≈ 3.04 µM)	> 64	–
CC(C)(C)c1cc(C(c2ccc(F)cc2)c2ccc(F)cc2)c(NC(=O)c2cccc(C(=O)O)c2)c(C(c2ccc(F)cc2)c2ccc(F)cc2)c1	> 64	> 64	1 (≈ 1.42 µM)	1 (≈ 1.42 µM)	> 64	2 (≈ 2.85 µM)	> 64	MIC [9]: 2 µg/mL (≈ 2.85 µM); inhibition (INH) [13]: 95%; inhibition (INH) [14]: >50%; MIC [10]: 2 µg/mL (≈ 2.85 µM); inhibition (INH) [15]: 95%; MIC [16]: 2 µg/mL (≈ 2.85 µM); MIC [11]: 2 µg/mL (≈ 2.85 µM); MIC [17]: 2 µg/mL (≈ 2.85 µM); MIC [18]: 2 µg/mL (≈ 2.85 µM); inhibition [19]: Active; MIC [20]: 2 µg/mL (≈ 2.85 µM); MIC [21]: 2 µg/mL (≈ 2.85 µM); MIC [22]: 2 µg/mL (≈ 2.85 µM); MIC [23]: 2 µg/mL (≈ 2.85 µM); MIC [24]: 2 µg/mL (≈ 2.85 µM); MIC [25]: 2 µg/mL (≈ 2.85 µM); MIC [26]: 2 µg/mL (≈ 2.85 µM)
CC(c1ccccc1)c1cc(C(C)(C)C)cc(C(C)c2ccccc2)c1NC(=O)c1cccc(C(=O)O)c1 (configuration not stated)	> 64	> 64	> 64	> 64	> 64	> 64	> 64	–
C#CCOc1ccccc1-c1ccc(-c2ccc(-c3ccccc3OCc3cn(CC(=O)N[C@@H](CCCNC(=N)N)C(=O)N[C@@H](CCCNC(=N)N)C(=O)N[C@@H](CCCNC(=N)N)C(N)=O)nn3)cc2)cc1	–	–	–	–	–	–	–	MIC [8]: 3.83 µg/mL (≈ 3.9 µM)
COc1ccc2c(c[n+]3c4c2ccc2c5c(cc(c24)CC3)OCO5)c1NC(=O)c1csnn1.[Cl-]	–	–	–	–	–	–	–	MIC [8]: 2 µg/mL
Cc1cc(C(c2ccccc2)c2ccccc2)c(NC(=O)c2cccc(C(=O)O)c2)c(C(c2ccccc2)c2ccccc2)c1	> 64	> 64	64 (≈ 109 µM)	64 (≈ 109 µM)	> 64	4 (≈ 6.81 µM)	> 64	–
O=C(O)c1cccc(C(=O)Nc2c(C(c3ccccc3)c3ccccc3)cc(Cl)cc2C(c2ccccc2)c2ccccc2)c1	> 64	> 64	1 (≈ 1.64 µM)	2 (≈ 3.29 µM)	> 64	2 (≈ 3.29 µM)	> 64	MIC [9]: 4 µg/mL (≈ 6.58 µM); inhibition (INH) [13]: 95%; inhibition (INH) [14]: >50%; MIC [10]: 4 µg/mL (≈ 6.58 µM); inhibition (INH) [15]: 96%; MIC [16]: 4 µg/mL (≈ 6.58 µM); MIC [11]: 4 µg/mL (≈ 6.58 µM); MIC [17]: 4 µg/mL (≈ 6.58 µM); MIC [18]: 4 µg/mL (≈ 6.58 µM); inhibition [19]: Active; MIC [20]: 4 µg/mL (≈ 6.58 µM); MIC [21]: 4 µg/mL (≈ 6.58 µM); MIC [22]: 4 µg/mL (≈ 6.58 µM); MIC [23]: 8 µg/mL (≈ 13.2 µM); MIC [24]: 8 µg/mL (≈ 13.2 µM); MIC [25]: 4 µg/mL (≈ 6.58 µM); MIC [26]: 8 µg/mL (≈ 13.2 µM)
O=C(O)c1cccc(C(=O)Nc2c(C(c3ccccc3)c3ccccc3)cc(F)cc2C(c2ccccc2)c2ccccc2)c1	> 64	> 64	2 (≈ 3.38 µM)	1 (≈ 1.69 µM)	> 64	4 (≈ 6.76 µM)	> 64	–
